From patent US6369077B1, “Protease inhibitors” (SmithKline Beecham Corporation, priority 1997, dated 2002)

Target: T1, cathepsin K (Homo sapiens, UniProt P43235)
T1 sequence (P43235 115-329): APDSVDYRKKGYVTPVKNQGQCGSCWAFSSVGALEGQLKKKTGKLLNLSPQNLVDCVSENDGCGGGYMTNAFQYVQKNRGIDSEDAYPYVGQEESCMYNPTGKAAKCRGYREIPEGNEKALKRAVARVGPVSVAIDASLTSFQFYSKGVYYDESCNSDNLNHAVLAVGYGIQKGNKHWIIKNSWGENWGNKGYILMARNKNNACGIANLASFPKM
Assay: Cathepsin K inhibition studies (progress curve method, fluorogenic peptide substrate)
Format: biochemical
Details: human recombinant enzyme; substrate typically Cbz-Phe-Arg-AMC; 100 mM Na acetate pH 5.5, 20 mM cysteine, 5 mM EDTA, 10% DMSO
Description: Determination of Cathepsin K Proteolytic Catalytic Activity
All assays for cathepsin K were carried out with human recombinant enzyme. Standard assay conditions for the determination of kinetic constants used a fluorogenic peptide substrate, typically Cbz-Phe-Arg-AMC, and were determined in 100 mM Na acetate at pH 5.5 containing 20 mM cysteine and 5 mM EDTA. Stock substrate solutions were prepared at concentrations of 10 or 20 mM in DMSO with 20 uM final substrate concentration in the assays. All assays contained 10% DMSO. […] All assays were conducted at ambient temperature. Product fluorescence (excitation at 360 nm; emission at 460 nm) was monitored with a Perceptive Biosystems Cytofluor II fluorescent plate reader. […]
Potential inhibitors were evaluated using the progress curve method. […] For those compounds whose progress curves were linear, apparent inhibition constants (Ki,app) were calculated according to equation 1 (Brandt et al., Biochemitsry, 1989, 28, 140): […]
[AMC]=vsst+(v0−vss)[1−exp(−kobst)]/kobs (2) where [AMC] is the concentration of product formed over time t, v0 is the initial reaction velocity and vss is the final steady state rate. Values for kobs were then analyzed as a linear function of inhibitor concentration to generate an apparent second order rate constant (kobs/inhibitor concentration or kobs/[I]) describing the time-dependent inhibition. […]

CC(C)C[C@H](NS(=O)(=O)c1cccc2cccnc12)C(=O)NC1COCC1=O (stereo partly drawn) [4-(R,S)-Amino-N-[(8-quinolinesulfonyl)-S-leucine]-3-tetrahydrofuran-3-one]
Ki: > 10 µM
